Reference: patent publication US20150283212A1, “ORAL CALCITONIN COMPOSITIONS AND APPLICATIONS THEREOF” (Novartis AG, priority 2007, published 2015)

Experiment: Pharmacokinetics of orally administered salmon calcitonin combined with 5-CNAC
Format: in vivo
Text: An oral form of calcitonin would improve patient acceptance and facilitate improved patient compliance by providing a more acceptable, alternative delivery route for peptide therapy. […] Salmon calcitonin appears rapidly in the plasma following oral administration, with median tmax at about 0.25 hr post-dose. Following tmax the plasma concentration fell rapidly. […] Plasma sCT concentrations increased as sCT doses increased. However, with high variability in available data, dose-proportional increase in AUC could not be confirmed.

- effect of food on bioavailability of sCT (administered with food): markedly reduces
- accumulation (AUC after multiple-dose vs single-dose) (oral): No significant accumulation
- gastrointestinal (GI) absorption of the sCT (oral, combination with 5-CNAC, rodents, monkeys and humans): marked increase
- Tmax (plasma, following oral administration, post-dose, read-out: median tmax): ~15 min
SMILES: CC(C)C[C@H](NC(=O)[C@H](CCCCN)NC(=O)CNC(=O)[C@H](CC(C)C)NC(=O)[C@@H](NC(=O)[C@@H]1CSSC[C@H](N)C(=O)N[C@@H](CO)C(=O)N[C@@H](CC(N)=O)C(=O)N[C@@H](CC(C)C)C(=O)N[C@@H](CO)C(=O)N[C@@H]([C@@H](C)O)C(=O)N1)C(C)C)C(=O)N[C@@H](CO)C(=O)N[C@@H](CCC(N)=O)C(=O)N[C@@H](CCC(=O)O)C(=O)N[C@@H](CC(C)C)C(=O)N[C@@H](Cc1c[nH]cn1)C(=O)N[C@@H](CCCCN)C(=O)N[C@@H](CC(C)C)C(=O)N[C@@H](CCC(N)=O)C(=O)N[C@H](C(=O)N[C@@H](Cc1ccc(O)cc1)C(=O)N1CCC[C@H]1C(=O)N[C@@H](CCCNC(=N)N)C(=O)N[C@H](C(=O)N[C@@H](CC(N)=O)C(=O)N[C@H](C(=O)NCC(=O)N[C@@H](CO)C(=O)NCC(=O)N[C@H](C(=O)N1CCC[C@H]1C(N)=O)[C@@H](C)O)[C@@H](C)O)[C@@H](C)O)[C@@H](C)O [salmon calcitonin]
